“And” between values parts separate entries of the source, which are not always exact repeats. Equal entries are not always repeated.
Assay: xn = mol fraction of the nth substance listed

CC(=O)[O-].CC[n+]1ccn(C)c1 + O
Conditions	electrical conductivity [S/m]	viscosity [mPa·s]
293.1 K, 101 kPa, x2 = 0.517	–	59.4
293.1 K, 101 kPa, x2 = 0.578	–	51.1
293.1 K, 101 kPa, x2 = 0.705	–	32.7
293.15 K, 100 kPa, x1 = 0.7987	0.314	–
293.15 K, 100 kPa, x1 = 1	0.223	–
293.15 K, 100 kPa, x2 = 0.2088	–	138.9
293.15 K, 101.3 kPa, x2 = 0	0.243	–
293.15 K, 101.3 kPa, x2 = 0.0774	0.327	–
293.15 K, 101.3 kPa, x2 = 0.1429	0.562	–
293.15 K, 101.3 kPa, x2 = 0.3065	1.016	–
293.15 K, 101.3 kPa, x2 = 0.4381	1.537	–
293.15 K, 101.3 kPa, x2 = 0.5278	2.03	–
293.15 K, 101.3 kPa, x2 = 0.7257	4.136	–
293.15 K, 101.3 kPa, x2 = 0.8083	5.417	–
293.15 K, 101.3 kPa, x2 = 0.8554	6.014	–
293.15 K, 101.3 kPa, x2 = 0.8891	5.902	–
293.15 K, 101.3 kPa, x2 = 0.9279	2.979	–
293.15 K, 101.3 kPa, x2 = 0.9308	2.707	–
293.15 K, 101.3 kPa, x2 = 0.9425	1.866	–
293.15 K, 101.3 kPa, x2 = 0.9559	1.121	–
293.15 K, 101.3 kPa, x2 = 0.9625	0.8	–
298.15 K, 101 kPa, x2 = 0	–	132.9
298.15 K, 101 kPa, x2 = 0.0992	–	109.7
298.15 K, 101 kPa, x2 = 0.266	–	85
298.15 K, 101 kPa, x2 = 0.4207	–	59.5
298.15 K, 101 kPa, x2 = 0.5408	–	44.4
298.15 K, 101 kPa, x2 = 0.6135	–	35.9
303.15 K, 100 kPa, x1 = 0.2003	2.37	–
303.15 K, 100 kPa, x1 = 0.7987	0.527	–
303.15 K, 100 kPa, x2 = 0.4	–	52.7
303.15 K, 101 kPa, x2 = 0.132	–	84
313.15 K, 100 kPa, x2 = 0.2088	–	47.2
313.15 K, 100 kPa, x2 = 0.4	–	33.9
313.15 K, 101 kPa, x2 = 0.188	–	46.7
313.15 K, 101 kPa, x2 = 0.5408	–	23.49
323.15 K, 100 kPa, x1 = 0.5984	1.63	–
323.15 K, 100 kPa, x2 = 0.2088	–	30.12
323.15 K, 101 kPa, x2 = 0.132	–	33.1
328.15 K, 101 kPa, x2 = 0.0992	–	27
328.15 K, 101 kPa, x2 = 0.4207	–	17.5
328.15 K, 101 kPa, x2 = 0.6805	–	9.43
328.15 K, 101 kPa, x2 = 0.8134	–	5.3
333.1 K, 101 kPa, x2 = 0.517	–	12.27
333.1 K, 101 kPa, x2 = 0.578	–	11
333.15 K, 100 kPa, x1 = 0.9481	1.31	–
333.15 K, 100 kPa, x1 = 1	1.31	–
333.15 K, 101 kPa, x2 = 0.188	–	21.4
333.15 K, 101 kPa, x2 = 0.266	–	19.5
343.15 K, 100 kPa, x1 = 1	1.75	–
343.15 K, 100 kPa, x2 = 0.2088	–	15.07
343.15 K, 100 kPa, x2 = 0.4	–	12.24
343.15 K, 100 kPa, x2 = 0.8023	–	3.8
343.15 K, 101 kPa, x2 = 0.222	–	14.52
343.15 K, 101 kPa, x2 = 0.5408	–	8.98
343.15 K, 101 kPa, x2 = 0.6805	–	6.22
353.15 K, 101 kPa, x2 = 0.102	–	12.96
353.15 K, 101 kPa, x2 = 0.132	–	12.58
353.15 K, 101 kPa, x2 = 0.188	–	11.89
353.15 K, 101 kPa, x2 = 0.355	–	10.11
363.15 K, 101 kPa, x2 = 0.072	–	10.28
363.15 K, 101 kPa, x2 = 0.102	–	10.09
363.15 K, 101 kPa, x2 = 0.132	–	9.82
373.15 K, 101 kPa, x2 = 0.188	–	7.48

CCCCCCCCCCCC[n+]1ccn(C)c1.[Br-] + O
298.15 K, 100 kPa, frequency 0.001 MHz
Conditions	electrical conductivity [S/m]
x1 = 3.604e-05	0.018
x1 = 7.207e-05	0.036
x1 = 9.009e-05	0.045
x1 = 0.0001081	0.054
x1 = 0.0001261	0.065
x1 = 0.0001441	0.072
x1 = 0.0001622	0.081
x1 = 0.0001802	0.089
x1 = 0.0002522	0.101
x1 = 0.0003242	0.111

CCCC[N+](C)(CCCC)CCCC.[Cl-] + O
viscosity
Conditions	293.15 K	298.15 K	303.15 K	308.15 K	313.15 K
100 kPa, x1 = 0.0003603	1.01 mPa·s	0.904 mPa·s	0.809 mPa·s	0.726 mPa·s	0.661 mPa·s
100 kPa, x1 = 0.0007023	1.024 mPa·s	0.914 mPa·s	0.815 mPa·s	0.735 mPa·s	0.671 mPa·s
100 kPa, x1 = 0.001062	1.035 mPa·s	0.93 mPa·s	0.829 mPa·s	0.744 mPa·s	0.686 mPa·s
100 kPa, x1 = 0.001422	1.045 mPa·s	0.941 mPa·s	0.839 mPa·s	0.756 mPa·s	0.694 mPa·s
101.3 kPa, x1 = 0.0003423	1.011 mPa·s	0.904 mPa·s	0.806 mPa·s	0.729 mPa·s	0.662 mPa·s
101.3 kPa, x1 = 0.0007203	1.023 mPa·s and 0.98 mPa·s and 1.04 mPa·s	0.914 mPa·s and 0.88 mPa·s and 0.93 mPa·s	0.812 mPa·s and 0.74 mPa·s and 0.83 mPa·s	0.737 mPa·s and 0.65 mPa·s and 0.75 mPa·s	0.672 mPa·s and 0.67 mPa·s
101.3 kPa, x1 = 0.001062	1.036 mPa·s	0.931 mPa·s	0.826 mPa·s	0.747 mPa·s	0.686 mPa·s
101.3 kPa, x1 = 0.00144	1.044 mPa·s and 0.97 mPa·s and 1.08 mPa·s	0.942 mPa·s and 0.89 mPa·s and 0.96 mPa·s	0.84 mPa·s and 0.77 mPa·s and 0.86 mPa·s	0.759 mPa·s and 0.77 mPa·s	0.695 mPa·s and 0.7 mPa·s

CCCn1cc[n+](C)c1.[Br-] + O
Conditions	electrical conductivity	viscosity [mPa·s]
298 K, 101 kPa, x2 = 0.22	0.14 S/m and 0.17 S/m	–
298 K, 101 kPa, x2 = 0.88	9.16 S/m	–
298 K, 101 kPa, x2 = 0.93	9.89 S/m	–
298 K, 101 kPa, x2 = 0.98	6.44 S/m	–
303.15 K, 100 kPa, x1 = 0.4005	–	29.2
323.15 K, 100 kPa, x1 = 0.0497	–	1.09

From the CheMixHub ionic liquid set
